# According to paper PMC2990584, “Phase Ib study of CP-868,596, a PDGFR inhibitor, combined with docetaxel with or without axitinib, a VEGFR inhibitor” (British Journal of Cancer, 2010):
# Legend:
# [1] = tested on: PDGFR-β overexpressing mesothelioma cell lines; parameters: method as in Wilmink and Richel, 2008; conditions: in vitro; ref Wilmink and Richel, 2008; cited from earlier work
# [2] = molecular target: PDGFR-β tyrosine kinase; parameters: method as in Lewis et al, 2009; conditions: ref Lewis et al, 2009, cited from earlier work
# [3] = tested on: tumour vasculature; test: DCE-MRI tumoural analysis; format: in vivo, human; conditions: DL 2, eight patients
# Method: The DCE time course in the tumour was analysed on a pixel-by-pixel basis by fitting the data to the Kety equation and by integrating the area under the initial (i.e. the first 90 s) uptake curve. The contrast-agent concentration time course in plasma and tissue was inferred from the change in T1-weighted signal as a function of time. The Kety equation fitted the tissue contrast-agent time course to a two-compartment model: […] Ct are plasma and tissue concentration, respectively, K^trans is volume endothelial transfer constant between plasma and the extracellular extravascular space (EES), and Ve is fractional EES volume ([Ashton et al, 2008]).
# [4] = tested on: patients with advanced cancers; parameters: method as in Lewis et al, 2009; conditions: ref Lewis et al, 2009, cited from earlier work
# [5] = tested on: PDGFR signalling pathway; test: Blood biomarkers of the PDGFR signalling pathway (SDS-PAGE, LI-COR); format: in vivo, human
# Method: Blood samples for the evaluation of biomarkers potentially related to the PDGFR signalling pathway (serum Src homology phosphatase (SHP)2, phopho(p)-SHP2, pAKT, and pS6) were collected within 4 days of baseline and on day 14 in each cohort. Protein levels were analysed using gel electrophoresis (SDS–PAGE) and the LI-COR immunodetection system with appropriate antibodies.
# [6] = tested on: advanced solid tumours; test: Antitumour activity (RECIST, FDG-PET, CT); format: in vivo, human; conditions: single patient, metastatic epithelioid sarcoma
# Method: Radiological assessments were conducted at screening and within 7 days prior to cycle 1 docetaxel dose for DLs 1–3, and at screening and cycle 2 day 1 for DL 4. Subsequent assessments were every other cycle for all DLs.
# [7] = Pharmacokinetics in patients (HPLC/tandem MS, non-compartmental); format: in vivo, human
# Method: In DL 4, sampling was conducted on day 8 (CP-868,596, axitinib, and docetaxel) and day 9 (CP-868,596 and axitinib) of cycle 1: samples were collected at 0 h (predose) and 1, 1.75, 3, 4.5, and 6.5 h post-dose on day 8 and at 0 h (predose) on day 9 for CP-868,596 and axitinib. Docetaxel concentrations were assessed at 1 (end of infusion), 1.75, and 6.5 h post-dose on day 8. Concentrations of CP-868,596, docetaxel, and axitinib were determined using validated HPLC/tandem mass spectrometry (HPLC/TMS) methods. Analytes were detected using an Applied-Biosystem Sciex API 3000/4000 LC/TMS system (MDI SCIEX, Concord, ON, Canada) operating in positive ion Electrospray mode. Non-compartmental pharmacokinetic analysis was performed using WinNonlin, version 3.2 (Pharsight, Mountain View, CA, USA). […] Tmax, half-life (t1/2), AUC0–48, and AUC0–infinity. […] Descriptive statistics were used when analysing patient demographics, safety, and tumour response data. Paired t-test was used to assess the impact of co-administration of docetaxel on CP-868,596 pharmacokinetics.
# [8] = tested on: xenograft models; parameters: method as in Whalen et al, 2005; conditions: ref Whalen et al, 2005; cited from earlier work
# [9] = tested on: patients with advanced solid tumors; parameters: method as in Rugo et al, 2005; conditions: ref Rugo et al, 2005; cited from earlier work
smiles,measurement,setting,value
Cc1ccc(NC(=O)c2ccc(CN3CCN(C)CC3)cc2)cc1Nc1nccc(-c2cccnc2)n1 [imatinib],effect on cells,[1],induced cytotoxicity and apoptosis
"CC1(COc2ccc3c(c2)ncn3-c2ccc3cccc(N4CCC(N)CC4)c3n2)COC1 [CP-868,596]",IC50,[2]; PDGFR-β tyrosine kinase,0.4 ng ml^–1
same,selectivity for PDGFR vs other related kinases,[2],50–100 fold
same,"perfused AUC, median percentage change at day 14 relative to baseline",[3],−4.4%
same,"perfused K^trans, median percentage change at day 14 relative to baseline",[3],12.7%
same,"tumour volume, median percentage change at day 14 relative to baseline",[3],14.3
same,"vascularised volume, median percentage change at day 14 relative to baseline",[3],16.6
same,most common toxicities,[4],"nausea, vomiting, diarrhoea, and transaminitis"
same,recommended dosage,"[4]; single agent, with food",100 mg twice daily (BID)
same,Dose-limiting toxicities (DLTs) identified,[4]; single agent,"haematuria, transaminitis, insomnia, and nausea/vomiting"
same,SHP and pSHP relative to baseline,"[5]; day 14, DL 1 and DL 2, n=10",unchanged
same,levels of pS6 in peripheral blood mononuclear cells relative to baseline,"[5]; day 14, DL 1 and DL 2, n=11, P=0.021",significantly decreased
same,levels of pAKT relative to baseline,"[5]; day 14, DL 1 and DL 2, n=12",non-significant increase
same,FDG-PET response,[6],partial metabolic response
same,pharmacokinetic parameters and plasma concentration profiles on co-administration,[7]; co-administration of docetaxel or docetaxel plus axitinib,unaffected
same,impact of co-administration of docetaxel on Cmax and AUC0–tau,"[7]; human, in vivo",no significant impact
same,cytotoxicity of docetaxel and gemcitabine on combination,[8],increased
CNC(=O)c1ccccc1Sc1ccc2c(/C=C/c3ccccn3)n[nH]c2c1 [axitinib],main toxicities,[9],"fatigue, nausea, diarrhoea, and hypertension"
